These molecules were tested on THP-1 viability, CellTiter-Glo luminescence, 72 h (assay: PubChem AID 2252).

| Compound | EC50 [µM] |
| --- | --- |
| NC(N)=N/N=C/c1ccc(OCc2ccc(Cl)cc2)cc1 | 5.57 |
| Oc1cccc(C=NCc2ccccc2)c1O | 38.9 |
| O=C(O)c1csc(-c2ccc(Cl)cc2)n1 | < 0.1 |
| O=C(C[n+]1cc(-c2ccc(Cl)cc2)n2c1CCC2)N1c2ccccc2Sc2ccccc21 | 15.4 |
| Oc1ccccc1N=Cc1c(O)ccc2oc3c(c12)CCCC3 | 45.8 |
| Nc1nc2ccccc2n1Cc1ccc(Cl)c(Cl)c1 | 31.6 |
| COC(=O)C(C)NC(=S)N1CCN(c2c(F)cc3c(=O)c(C(=O)O)cn(C4CC4)c3c2OC)CC1C (configuration not stated) | 36.9 |
| C[C@H]1c2cccc(O)c2C(O)=C2C(=O)[C@]3(O)C(O)=C(C(N)=O)C(=O)[C@@H](N(C)C)[C@@H]3[C@@H](O)[C@@H]21 | 29 |
| CC1(C)CC(N2CCN(c3ccccc3)CC2)=CC(=[N+]2CCCC2)C1 | 8.86 |
| Oc1ccc(Cl)cc1Cc1cc(Cl)ccc1O | 19.5 |
| CC(NCc1ccc(-c2ccccc2)cc1)C(O)c1ccccc1 (configuration not stated) | 5.49 |
| O=C(COc1ccc(Br)cc1CNCCc1ccccc1)NCc1ccccc1 | 10.4 |
| O=[N+]([O-])c1ccc(O)c(/C=N/Nc2ccccn2)c1 | 0.42 |
| Cc1ccccc1C(=O)Nc1cccc(C(=O)N/N=C/c2cc(Cl)cc([N+](=O)[O-])c2O)c1 | 12.4 |
| O=C(/C=C/c1ccco1)NC(=S)NNC(=O)c1ccco1 | 32.3 |
| C/C(Cn1nnc([N+](=O)[O-])n1)=N\NC(=O)c1ccccc1 | 40 |
| C/C(=N/Nc1ccnc2cc(Cl)ccc12)c1ccc(N)cc1 | 8.34 |
| C(=N\Nc1nc2ccccc2[nH]1)/c1ccc2ncccc2c1 | 15.6 |
| CC1CC(C)CN(CCOc2ccc(Cl)cc2Cl)C1 (configuration not stated) | 29.4 |
| Fc1ccc(/C=N/Nc2nc3ccccc3[nH]2)cc1F | 42.8 |
| O=C(CCN1CCN(c2ccccc2)CC1)c1ccc(Br)cc1 | 38.2 |
| COc1cccc(CNCCc2c[nH]c3ccccc23)c1OCc1ccccc1 | 6.18 |
| O=C(/C=C/c1ccco1)NC(=S)Nc1cccc(-c2nc3ccccc3o2)c1 | < 0.1 |

| Compound | EC50 [µM] |
| --- | --- |
| O=C(N/N=C/c1ccccn1)c1cccs1 | 26.4 |
| CCN1CCN(CCNC(=O)c2ccc(/C=C3/Sc4ccccc4N(Cc4cccc(C)c4)C3=O)cc2)CC1 | 8.21 |
| CNCCCC1c2ccccc2C=Cc2ccccc21 | 24.5 |
| O=C(/C=C/c1cccs1)NC(=S)NNC(=O)c1ccccc1O | 2.79 |
| COc1ccc(C(=O)N/N=C/c2sc3ccccc3c2O)cc1 | 3.36 |
| CCN1/C(=C/C=C/C=C/c2sc3ccccc3[n+]2CC)Sc2ccccc21 | 7.7 |
| O=C(CNC(=O)c1cccc(F)c1)N/N=C/c1ccc([N+](=O)[O-])s1 | 25.6 |
| Cc1cc(C)n(-c2nc(NCCN(C)C)c3c4c(sc3n2)CCCC4)n1 | 4.39 |
| CCC(=O)c1ccc(OCC(O)CNCCc2ccc(Cl)cc2)cc1 (configuration not stated) | 28.9 |
| CN(O)/C=c1/ccc2c(n1)C(=O)C=CC=2 | 25.5 |
| Cc1cccc(OCC(O)Cn2c(=N)n(CCN3CCCCC3)c3ccccc32)c1 (configuration not stated) | 16.1 |
| CN(C)CC/C=C1\c2ccccc2Sc2cc(F)c(Cl)cc21 | 10.8 |
| CCOC(=O)N1CCN(Cc2cc(Cl)c3cccnc3c2O)CC1 | 3.12 |
| CCCCCOc1ccc(C)cc1CN(CCCl)CCCl | 28.9 |
| Cc1ccc(S(=O)(=O)NC(C)(C)CSc2nnc(N)s2)cc1 | < 0.1 |
| COc1ccccc1C(=O)NNC1=C(C(=O)C(F)(F)F)CCC1 | 15.1 |
| N=c1c2c(-c3ccccc3)c(-c3ccccc3)n(Cc3ccco3)c2ncn1CCCn1ccnc1 | 7.71 |
| c1ccc2c(c1)nc(N1CCOCC1)c1c3ccccc3[nH]c21 | < 0.1 |
| C#CCOCCOCCOCCNc1nc(N2CCN(C(=O)CCCCCCCCCCNC(=O)[C@H](CCCCN)n3cc(C)nn3)CC2)nc(N2CCN(C(=O)CCCCCCCCCCNC(=O)[C@H](CCCN=C(N)N)n3cc(C[C@@H](C)CC)nn3)CC2)n1 | 5.13 |
| N/C(=N\OC(=O)N1CCOCC1)c1ccccc1 | 15.5 |
| Nc1ncn(C2O[C@H](CO)[C@@H](O)[C@H]2O)c(=O)n1 (some centres not stated) | 14 |
| CC(C)(C)c1ccc(OCCNC(=S)Nc2ccccc2)cc1 | 16 |
| c1ccc2c(NCCc3c[nH]c4ccccc34)c3ccccc3nc2c1 | 4.35 |

| Compound | EC50 [µM] |
| --- | --- |
| O=C(N/N=C/c1ccc(O)cc1O)C(=O)N/N=C/c1ccc(O)cc1O | 12 |
| CCCCOc1ccc(C(=O)OC2CC(C)N(C)CC2C)cc1 (configuration not stated) | 30.7 |
| CC1(C)Oc2ccc3ccc(=O)oc3c2/C(=C/NCCN/C=C2\C(=O)C(C)(C)Oc3ccc4ccc(=O)oc4c32)C1=O | < 0.1 |
| CC(=O)NC(=S)NNC(=O)c1ccc(Br)cc1 | 27.6 |
| CN1CCN(c2ccc(NC(=O)CSc3ccccc3)cc2F)CC1 | < 0.1 |
| O=C(/C=C/c1ccccc1)NNC(=O)c1ccco1 | < 0.1 |
| NC(N)=N/N=C/c1ccc(OCc2ccccc2Cl)cc1 | 3.15 |
| COc1ccc(CSCCN)cc1Cl | 44.9 |
| Oc1ccc(/C=N/N=C(c2ccccc2)c2ccccc2)c(O)c1O | 7.47 |
| COC(=O)C1C(O)C(C)C(O)C(C)(O)/C=C\C=C(/C)C(=O)Nc2c(C)c(OC(C)=O)c3c(c2O)C(=O)C(C)=C2OCOC(=C23)/C(C)=C/C(C)(O)C(O)C(C)C1O (configuration not stated) | < 0.1 |
| Oc1c(I)cc(Cl)c2cccnc12 | 14.7 |
| S=C(Nc1cc(Cl)cc(Cl)c1)NC1CCN(Cc2ccccc2)CC1 | 14.6 |
| Cc1ccc(Nc2nc(N)c3ccccc3n2)cc1Cl | 13.7 |
| CCN1c2ccccc2NC2N=C(OC)C(c3ccccc3)C21 (configuration not stated) | 16.1 |
| O=c1c2ccccc2nc(COc2ccccc2)n1/N=C/c1ccc(O)cc1O | 1.46 |
| CC(C)NC(=O)Nc1ccc(Br)cc1Cl | < 0.1 |
| COc1ccc(Nc2c3c(nc4ccccc24)CCC3)cc1 | 3.42 |
| COc1ccc2c(C(=O)CCl)c[nH]c2c1 | 11.2 |
| CN(C)CCNc1oc(COc2ccc(-c3ccccc3)cc2)nc1C#N | 13.1 |
| CC(C)(C)Nc1nc(-c2ccccn2)nc2ccccc12 | 3.45 |
| Cc1ccc(Cn2c(=N)c(C(=O)NCc3ccco3)cc3c(=O)n4ccccc4nc32)cc1 | 42.6 |

From PubChem BioAssay AID2252 (Southern Research Specialized Biocontainment Screening …, 2010)
